According to patent publication US20230348453A1, “HALOGENATED-HETEROARYL AND OTHER HETEROCYCLIC KINASE INHIBITORS, AND USES THEREOF” (iOmx Therapeutics AG, priority 2020, published 2023):

What was measured:
[1] = system: MC38 murine tumour cell line; assay: TNF-sensitised cell viability assay (CellTiter-Glo); conditions: Mus musculus, MC-38, read-out: MC38 IC50 (at 100 ng/mL rMuTNF)
HCT116 cells = assay: as above; conditions: Homo sapiens, HCT-116, read-out: HCT116 IC50 (at 10 ng/ml rHuTNF)
SIK2 = SIK2 (Homo sapiens (Human), UniProt Q9H0K1); assay: SIK2 kinase inhibition (IC50); conditions: read-out: Kinase: IC50 (nM) SIK2
SIK3 = SIK3 (Homo sapiens (Human), UniProt Q9Y2K2); assay: SIK3 kinase inhibition (IC50)
PANC1 cells = assay: TNF-sensitised cell viability assay (CellTiter-Glo); conditions: Homo sapiens, PANC-1, read-out: PANC IC50 (at 100 ng/ml rHuNF)
[2] = system: MPAL-associated AML cell lines (including MOLM-13 and MV4-11); conditions: chemical inhibition of SIK3; cited from earlier work

Row | IC50 (SIK2) | IC50 (SIK3) | Compound | IC50 [1] | IC50 (HCT116 cells) | IC50 (PANC1 cells) | viability of AML cell lines [2]
1 | < 20 nM | 20 to 50 nM | Cc1nc(Nc2ncc(C(=O)Nc3c(C(F)F)csc3Cl)s2)cc(N2CCN(C)C(C)C2)n1 (racemic) [Compound E16, N-(2-chloro-4-(difluoromethyl)thiophen-3-yl)-2-((2-methyl-6-(3,4-dimethylpiperazin-1-yl)pyrimidin-4-yl)amino)thiazole-5-carboxamide] | < 100 nM | < 100 nM | < 100 nM | 
2 |  |  | HG-9-91-01 |  |  |  | strongly decreases viability
